Test results taken from patent publication US8598087B2, “Crystalline form of 4-[5-[3-chloro-5-(trifluoromethyl)phenyl]-4, 5-dihydro-5-(trifluoromethyl)-3-isoxazolyl]-N-[2-0X0-2-[(2,2,2-trifluoroethyl)amino]ethyl]-1- naph-thalenecarboxamide” (E. I. du Pont de Nemours and Company, priority 2010, dated 2013).
Entries after “also recorded” stand apart in the source; their conditions may differ.

Key:
Format in all cases: physicochemical
[1] = Physical stability of polymorph Form B under humidity stress (XRPD)
[2] = Interconversion slurry experiments (relative stability of solid forms, XRPD)
Procedure: Interconversion slurry experiments were performed in a variety of solvents at different temperatures. Sufficient amounts of Compound 1 were added to solvents in vials so that excess solid remained. The mixtures were agitated in sealed vials at the selected temperature and the solids were isolated by filtration after the selected time and analyzed by XRPD.

[3] = Physical stability / hygroscopicity of polymorph Form A (relative humidity exposure); conditions: 5 to 95% relative humidity at 25° C. (5 hours)
Procedure: The physical stability of polymorph Form A was characterized. A samples of Form A exposed to 5 to 95% relative humidity at 25° C.

Vacuum drying experiment = assay: Vacuum drying experiment
[4] = Physical stability of amorphous Compound 1 (vapor stress and slurry, XRPD)
Procedure: The physical stability of the amorphous material was characterized. […] Amorphous Compound 1 was also slurried in methanol\water (1:1) for 5 days at 60° C. resulting in irregular fragments of crystals determined to be Form B by XRPD.

## O=C(CNC(=O)c1ccc(C2=NOC(c3cc(Cl)cc(C(F)(F)F)c3)(C(F)(F)F)C2)c2ccccc12)NCC(F)(F)F (centres unmarked) [Form B, 4-[5-[3-chloro-5-(trifluoromethyl)phenyl]-4,5-dihydro-5-(trifluoromethyl)-3-isoxazolyl]-N-[2-oxo-2-[(2,2,2-trifluoroethyl)amino]ethyl]-1-naphthalenecarboxamide]
[1]; 60% relative humidity (25° C.) for 1 month
  change by XRPD after humidity stress: unchanged by XRPD
[1]; 75% relative humidity (40° C.) for 1 month
  change by XRPD after humidity stress: unchanged by XRPD
[1]; pure solid form, conclusion of humidity stress conditions tested
  physical stability of Form B: physically stable; also recorded: stable under the conditions tested
[2]; in organic solvent/water mixtures especially methanol/water
  relative physical stability of solid forms: most stable solid form

## O=C(CNC(=O)c1ccc(C2=NOC(c3cc(Cl)cc(C(F)(F)F)c3)(C(F)(F)F)C2)c2ccccc12)NCC(F)(F)F (racemic) [Compound 1, 4-[5-[3-chloro-5-(trifluoromethyl)phenyl]-4,5-dihydro-5-(trifluoromethyl)-3-isoxazolyl]-N-[2-oxo-2-[(2,2,2-trifluoroethyl)amino]ethyl]-1-naphthalenecarboxamide]
[2]; acetonitrile, 3 days at 83° C.
  solid form yielded by slurry (XRPD): Pattern G solid
[2]; acetonitrile, 8 days at 0° C.
  solid form yielded by slurry (XRPD): Pattern G solid
[2]; acetonitrile/water (9:1), 3 days at 83° C.
  solid form yielded by slurry (XRPD): polymorph Form B
[2]; acetonitrile/water (9:1), 8 days at 0° C.
  solid form yielded by slurry (XRPD): Pattern G solid

## O=C(CNC(=O)c1ccc(C2=NOC(c3cc(Cl)cc(C(F)(F)F)c3)(C(F)(F)F)C2)c2ccccc12)NCC(F)(F)F (centres unmarked) [Form A, 4-[5-[3-chloro-5-(trifluoromethyl)phenyl]-4,5-dihydro-5-(trifluoromethyl)-3-isoxazolyl]-N-[2-oxo-2-[(2,2,2-trifluoroethyl)amino]ethyl]-1-naphthalenecarboxamide]
[2]; in acetonitrile
  relative physical stability of solid forms: metastable solid form
[3]
  hygroscopicity: non-hygroscopic
  weight change on exposure to relative humidity: negligible weight change

## O=C(CNC(=O)c1ccc(C2=NOC(c3cc(Cl)cc(C(F)(F)F)c3)(C(F)(F)F)C2)c2ccccc12)NCC(F)(F)F (centres unmarked) [Pattern G solid]
[2]; in acetonitrile
  relative physical stability of solid forms: most stable solid form
Vacuum drying experiment; vacuum drying (36-68 mtorr) at 50° C. for 4 hours
  solid form obtained after vacuum drying: Form A
Vacuum drying experiment; vacuum drying (51 mtorr) at 70° C. for 5 hours
  solid form obtained after vacuum drying: solid glass

## O=C(CNC(=O)c1ccc(C2=NOC(c3cc(Cl)cc(C(F)(F)F)c3)(C(F)(F)F)C2)c2ccccc12)NCC(F)(F)F (centres unmarked) [Amorphous Compound 1, 4-[5-[3-chloro-5-(trifluoromethyl)phenyl]-4,5-dihydro-5-(trifluoromethyl)-3-isoxazolyl]-N-[2-oxo-2-[(2,2,2-trifluoroethyl)amino]ethyl]-1-naphthalenecarboxamide]
[4]; pure solid form, conclusion of vapor stress and slurry
  physical stability of the amorphous solid: physically unstable and readily crystallized
[4]; slurried in methanol\water (1:1) for 5 days at 60° C.
  solid form obtained after slurry (by XRPD): Form B
[4]; vapor stressed under acetonitrile at 25° C. for 2 days
  solid form obtained after vapor stress (by XRPD): Pattern G material
